# According to patent US8202885B2, “Bridged six-membered ring compounds” (Actelion Pharmaceuticals Ltd., priority 2007, dated 2012):
# Test system: human Cav3.1 Cav3.2 or Cav3.3 channel
# Assay: In vitro assay T channel (FLIPR calcium fluorescence)
# Assay type: cell-based
# Conditions: HEK293 cells expressing human Cav3.1, Cav3.2 or Cav3.3; 10 mM Ca2+-induced fluo-4 fluorescence; determined up to 10 μM; read-out: T channel antagonistic activity IC50
# Procedure: The T channel antagonistic activity (IC50 values) of the compounds of formula (I) is determined in accordance with the following experimental method and data are shown in Table 1.
# Human embryonic kidney (HEK293) cells expressing the human Cav3.1 Cav3.2 or Cav3.3 channel, respectively, are grown in culture medium (DMEM containing 10% heat-inactivated fetal calf serum (FCS), 100 U/ml penicillin, 100 μg/ml streptomycin and 1 mg/ml G418). The cells are seeded at 20.000 cells/well into 384-well black clear bottom sterile plates (poly-L-lysine-coated, Becton Dickinson). The seeded plates are incubated overnight at 37° C. in 5% CO2. The Ca^2+ solution is prepared as 100 mM stock solution in 100 mM tetraethylammoniumchloride (TEA-chloride), 50 mM HEPES, 2.5 mM CaCl2, 5 mM KCl, 1 mM MgCl2, adjusted to pH 7.2 with TEA-hydroxide, for use in the assay at a final concentration of 10 mM. Antagonists are prepared as 10 mM stock solutions in DMSO, then diluted in 384 w plates first in DMSO, then in 100 mM TEA-chloride, 50 mM HEPES, 2.5 mM CaCl2, 5 mM KCl, 1 mM MgCl2, adjusted to pH 7.2 with TEA-hydroxide, to obtain 9× stocks. On the day of the assay, 25 μl of staining buffer (HBSS containing 20 mM HEPES, 0.375 g/l NaHCO3 and 3 μM of the fluorescent calcium indicator fluo-4 AM (1 mM stock solution in DMSO, containing 10% pluronic) is added to each well of the seeded plate. The 384-well cell-plates are incubated for 60 min at 37° C. in 5% CO2 followed by washing with 2×50 μl per well using HBSS containing 0.1% BSA, 20 mM HEPES, 0.375 g/l NaHCO3, leaving 50 […] of this buffer for equilibration at room temperature (30-60 min). Within the Fluorescent Imaging Plate Reader (FLIPR, Molecular Devices), antagonists are added to the plate in a volume of 6.25 μl/well, incubated for 3 min, and finally 6.25 […] of Ca^2+ solution is added. Fluorescence is measured for each well at 2 second intervals for 8 minutes, and the area under the curve of each fluorescence peak is compared to the area of the fluorescence peak induced by 10 mM Ca^2+ with vehicle in place of antagonist. For each antagonist, the IC50 value (the concentration (in nM) of compound needed to inhibit 50% of the Ca^2+-induced fluorescence response) up to 10 μM is determined.
row,Compound,IC50 [µM]
1,"CN(CCCc1nc2ccccc2[nH]1)CC[C@]1(O)C[C@H]2CC[C@@H]1C=C2c1ccc2ccccc2c1 (relative stereo) [Example 10, rac-(1R*,2R*,4R*)-2-(2-{[3-(1H-Benzoimidazol-2-yl)-propyl]-methyl-amino}-ethyl)-5-naphthalen-2-yl-bicyclo[2.2.2]oct-5-en-2-ol]",5.87
2,"CN(CCc1nc2ccccc2[nH]1)CC[C@]1(O)C[C@H]2CC[C@@H]1C=C2c1ccccc1 (relative stereo) [Example 13, rac-(1R*,2R*,4R*)-2-(2-{[2-(1H-Benzoimidazol-2-yl)-ethyl]-methyl-amino}-ethyl)-5-phenyl-bicyclo[2.2.2]oct-5-en-2-ol]",2.73
3,"CC(C)C(=O)O[C@@]1(CCN(C)CCc2nc3ccccc3[nH]2)C[C@H]2CC[C@@H]1C=C2c1ccccc1 (relative stereo) [Example 13A, rac-Isobutyric acid (1R*,2R*,4R*)-2-(2-{[2-(1H-benzoimidazol-2-yl)-ethyl]-methyl-amino}-ethyl)-5-phenyl-bicyclo[2.2.2]oct-5-en-2-yl ester]",4.34
4,"CN(CC[C@]1(O)C[C@H]2CC[C@@H]1C=C2c1ccccc1)Cc1nc2ccccc2[nH]1 (relative stereo) [Example 14, rac-(1R*,2R*,4R*)-2-{2-[(1H-Benzoimidazol-2-ylmethyl)-methyl-amino]-ethyl}-5-phenyl-bicyclo[2.2.2]oct-5-en-2-ol]",8.95
5,"CC(C)C(=O)O[C@@]1(CCN(C)Cc2nc3ccccc3[nH]2)C[C@H]2CC[C@@H]1C=C2c1ccccc1 (relative stereo) [Example 14A, rac-Isobutyric acid (1R*,2R*,4R*)-2-{2-[(1H-benzoimidazol-2-ylmethyl)-methyl-amino]-ethyl}-5-phenyl-bicyclo[2.2.2]oct-5-en-2-yl ester]",3.18
6,"CN(CCCc1ccccc1)CC[C@]1(O)C[C@H]2CC[C@@H]1C=C2c1ccccc1 (relative stereo) [Example 15, rac-(1R*,2R*,4R*)-2-{2-[Methyl-(3-phenyl-propyl)-amino]-ethyl}-5-phenyl-bicyclo[2.2.2]oct-5-en-2-ol]",> 10
7,"CC(C)C(=O)O[C@@]1(CCN(C)CCCc2ccccc2)C[C@H]2CC[C@@H]1C=C2c1ccccc1 (relative stereo) [Example 15A, rac-Isobutyric acid (1R*,2R*,4R*)-2-{2-[methyl-(3-phenyl-propyl)-amino]-ethyl}-5-phenyl-bicyclo[2.2.2]oct-5-en-2-yl ester]",8.63
8,"CCCC1=C(C)[C@H]2CC[C@@H]1C[C@@]2(O)CCN(C)CCCc1nc2ccccc2[nH]1 (relative stereo) [Example 16, rac-(1R*,2R*,4R*)-2-(2-{[3-(1H-Benzoimidazol-2-yl)-propyl]-methyl-amino}-ethyl)-6-methyl-5-propyl-bicyclo[2.2.2]oct-5-en-2-ol]",5.69
9,"CCCC1=C(C)[C@H]2CC[C@@H]1C[C@]2(CCN(C)CCCc1nc2ccccc2[nH]1)OC(=O)C(C)C (relative stereo) [Example 16A, rac-Isobutyric acid (1R*,2R*,4R*)-2-(2-{[3-(1H-benzoimidazol-2-yl)-propyl]-methyl-amino}-ethyl)-6-methyl-5-propyl-bicyclo[2.2.2]oct-5-en-2-yl ester]",2.39
10,"CC1=C(c2ccccc2)[C@H]2CC[C@@H]1C[C@@]2(O)CCN(C)CCCc1nc2ccccc2[nH]1 (relative stereo) [Example 17, rac-(1R*,2R*,4R*)-2-(2-{[3-(1H-Benzoimidazol-2-yl)-propyl]-methyl-amino}-ethyl)-5-methyl-6-phenyl-bicyclo[2.2.2]oct-5-en-2-ol]",1.26
11,"CC1=C(c2ccccc2)[C@H]2CC[C@@H]1C[C@]2(O)CCN(C)CCCc1nc2ccccc2[nH]1 (relative stereo) [Example 17B, rac-(1R*,2S*,4R*)-2-(2-{[3-(1H-Benzoimidazol-2-yl)-propyl]-methyl-amino}-ethyl)-5-methyl-6-phenyl-bicyclo[2.2.2]oct-5-en-2-ol]",0.751
12,"CC1=C(c2ccccc2)[C@H]2CC[C@@H]1C[C@@]2(CCN(C)CCCc1nc2ccccc2[nH]1)OC(=O)C(C)C (relative stereo) [Example 17C, rac-Isobutyric acid (1R*,2S*,4R*)-2-(2-{[3-(1H-benzoimidazol-2-yl)-propyl]-methyl-amino}-ethyl)-5-methyl-6-phenyl-bicyclo[2.2.2]oct-5-en-2-yl ester]",0.55

# Second part, the compound after the results:
row,IC50 [µM],Compound
1,1.57,"COC(=O)c1cccc2[nH]c(CCCN(C)CC[C@]3(O)C[C@H]4CC[C@@H]3C=C4c3ccccc3)nc12 (relative stereo) [Example 19, rac-2-(3-{[2-((1R*,2R*,4R*)-2-Hydroxy-5-phenyl-bicyclo[2.2.2]oct-5-en-2-yl)-ethyl]-methyl-amino}-propyl)-1H-benzoimidazole-4-carboxylic acid methyl ester]"
2,1.71,"COC(=O)c1cccc2[nH]c(CCCN(C)CC[C@]3(OC(=O)C(C)C)C[C@H]4CC[C@@H]3C=C4c3ccccc3)nc12 (relative stereo) [Example 19A, rac-2-(3-{[2-((1R*,2R*,4R*)-2-Isobutyryloxy-5-phenyl-bicyclo[2.2.2]oct-5-en-2-yl)-ethyl]-methyl-amino}-propyl)-1H-benzoimidazole-4-carboxylic acid methyl ester]"
3,> 10,"COC(=O)c1ccc2[nH]c(CCCN(C)CC[C@]3(O)C[C@H]4CC[C@@H]3C=C4c3ccccc3)nc2c1 (relative stereo) [Example 20, rac-2-(3-{[2-((1R*,2R*,4R*)-2-Hydroxy-5-phenyl-bicyclo[2.2.2]oct-5-en-2-yl)-ethyl]-methyl-amino}-propyl)-1H-benzoimidazole-5-carboxylic acid methyl ester]"
4,4.57,"COC(=O)c1ccc2[nH]c(CCCN(C)CC[C@]3(OC(=O)C(C)C)C[C@H]4CC[C@@H]3C=C4c3ccccc3)nc2c1 (relative stereo) [Example 20A, rac-2-(3-{[2-((1R*,2R*,4R*)-2-Isobutyryloxy-5-phenyl-bicyclo[2.2.2]oct-5-en-2-yl)-ethyl]-methyl-amino}-propyl)-1H-benzoimidazole-5-carboxylic acid methyl ester]"
5,3.47,"CN(CCCc1nc2ccccc2[nH]1)CC[C@]1(O)C[C@H]2CC[C@@H]1C=C2c1cccs1 (relative stereo) [Example 21, rac-(1R*,2R*,4R*)-2-(2-{[3-(1H-Benzoimidazol-2-yl)-propyl]-methyl-amino}-ethyl)-5-thiophen-2-yl-bicyclo[2.2.2]oct-5-en-2-ol]"
6,6.93,"COc1ccc(C2=C[C@H]3CC[C@@H]2C[C@]3(CCN(C)CCCc2nc3ccccc3[nH]2)OC(=O)C(C)C)cc1 (relative stereo) [Example 22A, rac-Isobutyric acid (1R*,2R*,4R*)-2-(2-{[3-(1H-benzoimidazol-2-yl)-propyl]-methyl-amino}-ethyl)-5-(4-methoxy-phenyl)-bicyclo[2.2.2]oct-5-en-2-yl ester]"
7,4.01,"COc1ccccc1C1=C[C@H]2CC[C@@H]1C[C@]2(CCN(C)CCCc1nc2ccccc2[nH]1)OC(=O)C(C)C (relative stereo) [Example 23A, rac-Isobutyric acid (1R*,2R*,4R*)-2-(2-{[3-(1H-benzoimidazol-2-yl)-propyl]-methyl-amino}-ethyl)-5-(2-methoxy-phenyl)-bicyclo[2.2.2]oct-5-en-2-yl ester]"
8,> 10,"CN(CCCc1nc2ccccc2[nH]1)CC[C@]1(O)C[C@H]2CC[C@@H]1C=C2c1nccs1 (relative stereo) [Example 24, rac-(1R*,2R*,4R*)-2-(2-{[3-(1H-Benzoimidazol-2-yl)-propyl]-methyl-amino}-ethyl)-5-thiazol-2-yl-bicyclo[2.2.2]oct-5-en-2-ol]"
9,2.75,"CC(C)C(=O)O[C@@]1(CCN(C)CCCc2nc3ccccc3[nH]2)C[C@H]2CC[C@@H]1C=C2c1nccs1 (relative stereo) [Example 24A, rac-Isobutyric acid (1R*,2R*,4R*)-2-(2-{[3-(1H-benzoimidazol-2-yl)-propyl]-methyl-amino}-ethyl)-5-thiazol-2-yl-bicyclo[2.2.2]oct-5-en-2-yl ester]"
10,1.59,"CC(C)C(=O)O[C@@]1(CCN(C)CCCc2nc3ccccc3[nH]2)C[C@H]2CC[C@@H]1C=C2c1ncco1 (relative stereo) [Example 25A, rac-Isobutyric acid (1R*,2R*,4R*)-2-(2-{[3-(1H-benzoimidazol-2-yl)-propyl]-methyl-amino}-ethyl)-5-oxazol-2-yl-bicyclo[2.2.2]oct-5-en-2-yl ester]"
